Test results taken from ChEMBL document CHEMBL1201862, “PubChem BioAssay data set” (2004).
Calls of active or inactive are those of the source.

How the values were obtained:
BJ = assay: BJ-TERT fibroblast viability loss – cell-based, RAS-independent, luminescence, dose response (AID 1933); assay type: functional; details: Homo sapiens
[1] = DRD fibroblast viability loss – cell-based, non-viral oncogenic, luminescence, dose response (AID 1934); assay type: functional; details: Homo sapiens
[2] = target: T1, Replicative DNA helicase DnaB (Mycobacterium tuberculosis, UniProt P9WMR3); assay: DnaB intein splicing inhibitors, dose response, biochemical, cell-free fluorescence (AID 449749); assay type: functional
T1 sequence (P9WMR3 whole entry): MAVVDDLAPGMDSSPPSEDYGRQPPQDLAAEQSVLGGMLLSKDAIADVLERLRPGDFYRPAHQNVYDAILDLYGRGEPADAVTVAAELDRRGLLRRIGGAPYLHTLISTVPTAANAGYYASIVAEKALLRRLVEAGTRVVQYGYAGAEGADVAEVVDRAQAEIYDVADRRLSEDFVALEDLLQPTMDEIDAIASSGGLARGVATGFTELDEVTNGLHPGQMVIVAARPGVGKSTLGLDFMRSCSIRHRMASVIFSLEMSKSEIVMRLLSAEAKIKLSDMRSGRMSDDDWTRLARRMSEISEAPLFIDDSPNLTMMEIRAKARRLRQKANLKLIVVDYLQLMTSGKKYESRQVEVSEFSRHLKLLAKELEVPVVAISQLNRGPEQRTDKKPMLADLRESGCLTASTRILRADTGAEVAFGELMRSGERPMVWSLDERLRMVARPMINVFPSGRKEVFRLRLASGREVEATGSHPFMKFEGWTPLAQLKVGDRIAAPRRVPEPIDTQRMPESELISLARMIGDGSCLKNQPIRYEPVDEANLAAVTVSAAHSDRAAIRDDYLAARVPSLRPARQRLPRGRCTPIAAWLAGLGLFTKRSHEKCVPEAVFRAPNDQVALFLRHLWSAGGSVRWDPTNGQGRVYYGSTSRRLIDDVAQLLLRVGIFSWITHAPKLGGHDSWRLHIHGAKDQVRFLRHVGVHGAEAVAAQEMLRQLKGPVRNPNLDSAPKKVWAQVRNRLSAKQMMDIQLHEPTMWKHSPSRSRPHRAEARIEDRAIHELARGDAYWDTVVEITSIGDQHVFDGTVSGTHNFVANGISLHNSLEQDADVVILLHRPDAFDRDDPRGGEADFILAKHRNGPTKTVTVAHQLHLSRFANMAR

Hexokinase HKDC1 = target: T2, Hexokinase HKDC1 (Homo sapiens, UniProt Q2TB90); assay: inhibition of HKDC1 glucose phosphorylation – biochemical, W721R variant, dose response (AID 504729); assay type: functional
T2 sequence (Q2TB90 whole entry): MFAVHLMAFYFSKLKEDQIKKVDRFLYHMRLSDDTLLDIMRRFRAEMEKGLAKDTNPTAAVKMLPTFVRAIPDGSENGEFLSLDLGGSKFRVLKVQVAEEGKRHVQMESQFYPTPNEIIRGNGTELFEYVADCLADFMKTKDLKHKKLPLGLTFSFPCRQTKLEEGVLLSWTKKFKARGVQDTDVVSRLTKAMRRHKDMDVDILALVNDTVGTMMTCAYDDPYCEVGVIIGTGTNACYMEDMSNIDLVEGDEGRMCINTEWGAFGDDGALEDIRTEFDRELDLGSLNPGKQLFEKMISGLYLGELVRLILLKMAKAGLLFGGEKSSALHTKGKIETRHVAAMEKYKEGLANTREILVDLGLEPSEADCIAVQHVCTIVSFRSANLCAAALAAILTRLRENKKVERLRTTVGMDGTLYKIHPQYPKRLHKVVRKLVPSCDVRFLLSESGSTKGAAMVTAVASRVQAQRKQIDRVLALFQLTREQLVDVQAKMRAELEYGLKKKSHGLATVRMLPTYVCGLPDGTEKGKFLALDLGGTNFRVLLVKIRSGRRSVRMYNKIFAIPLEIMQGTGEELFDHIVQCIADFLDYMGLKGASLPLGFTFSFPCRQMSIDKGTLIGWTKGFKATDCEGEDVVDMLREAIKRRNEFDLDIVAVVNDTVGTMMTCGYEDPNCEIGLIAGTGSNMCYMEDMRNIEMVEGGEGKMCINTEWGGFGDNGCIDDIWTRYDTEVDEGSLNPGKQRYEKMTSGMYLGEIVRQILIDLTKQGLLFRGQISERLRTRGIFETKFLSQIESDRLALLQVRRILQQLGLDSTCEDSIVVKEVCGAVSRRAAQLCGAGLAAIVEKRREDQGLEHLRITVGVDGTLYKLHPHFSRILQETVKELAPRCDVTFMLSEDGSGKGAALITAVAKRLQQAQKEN

Streptokinase A = target: T3, Streptokinase A (Streptococcus pyogenes serotype M1, UniProt P10520); assay: viability-normalized secreted streptokinase activity reduction – plasminogen activation absorbance, OD405, dose response (AID 1914); assay type: functional, Streptococcus pyogenes M1 GAS;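 note: secreted streptokinase activity via plasminogen activation per viability signal from cell pellet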
T3 sequence (P10520 whole entry): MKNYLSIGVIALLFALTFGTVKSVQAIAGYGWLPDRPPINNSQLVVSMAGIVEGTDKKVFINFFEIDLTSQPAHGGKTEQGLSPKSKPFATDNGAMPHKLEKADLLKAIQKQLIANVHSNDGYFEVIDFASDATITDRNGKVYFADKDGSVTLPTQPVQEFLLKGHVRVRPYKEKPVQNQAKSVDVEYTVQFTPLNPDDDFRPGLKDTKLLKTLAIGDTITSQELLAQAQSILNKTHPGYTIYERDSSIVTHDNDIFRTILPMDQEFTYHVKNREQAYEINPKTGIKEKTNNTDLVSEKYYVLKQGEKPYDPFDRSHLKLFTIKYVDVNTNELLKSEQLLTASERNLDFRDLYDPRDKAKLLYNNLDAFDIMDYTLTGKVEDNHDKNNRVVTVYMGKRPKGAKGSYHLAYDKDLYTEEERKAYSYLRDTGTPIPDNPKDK

[3] = target: T4, Type-1 angiotensin II receptor (Homo sapiens, UniProt P30556); assay: antagonism of angiotensin II type 1 receptor – cell-based, uHTS hits, selectivity assay for APJ receptor antagonist project, dose response (AID 463214); assay type: functional;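 note: antagonist potency against angiotensin II stimulated AT1 response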
T4 sequence (P30556 whole entry): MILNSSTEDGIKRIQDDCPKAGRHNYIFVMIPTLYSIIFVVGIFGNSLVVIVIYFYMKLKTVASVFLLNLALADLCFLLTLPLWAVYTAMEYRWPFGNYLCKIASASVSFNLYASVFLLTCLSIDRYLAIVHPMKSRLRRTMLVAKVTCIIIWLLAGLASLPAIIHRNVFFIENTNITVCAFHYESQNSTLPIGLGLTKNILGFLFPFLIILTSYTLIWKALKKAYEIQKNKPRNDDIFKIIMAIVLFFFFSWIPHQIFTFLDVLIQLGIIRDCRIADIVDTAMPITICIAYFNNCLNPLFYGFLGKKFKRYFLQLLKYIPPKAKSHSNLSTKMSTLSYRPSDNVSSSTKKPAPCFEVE

[4] = target: Sphingosine 1-phosphate receptor 1 (Homo sapiens, UniProt P21453); assay type: functional;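 note: Tango beta-arrestin reporter U2OS cells stimulated with S1P near its EC80; inhibitor potency meaning antagonism of receptor activation by the natural agonist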
[5] = THP-1 cell cytotoxicity, dose response, cytotoxicity control for non-replicating M. tuberculosis project (AID 489025); assay type: functional
[6] = target: ATP-dependent molecular chaperone HSP82 (Candida albicans (strain WO-1) (Yeast), UniProt C4YTQ8); assay: steroid-induced GRE reporter decrease in yeast – S. cerevisiae, luminescence, Hsp90 inhibitor project, dose response (AID 2400); assay type: functional, cell-based;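 note: beta-galactosidase luminescence from glucocorticoid response element reporter as proxy for Hsp90 function; inhibitor potency where signal loss means Hsp90 inhibition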
Chain of ATP-dependent molecular chaperone HSP82 (C4YTQ8 whole entry): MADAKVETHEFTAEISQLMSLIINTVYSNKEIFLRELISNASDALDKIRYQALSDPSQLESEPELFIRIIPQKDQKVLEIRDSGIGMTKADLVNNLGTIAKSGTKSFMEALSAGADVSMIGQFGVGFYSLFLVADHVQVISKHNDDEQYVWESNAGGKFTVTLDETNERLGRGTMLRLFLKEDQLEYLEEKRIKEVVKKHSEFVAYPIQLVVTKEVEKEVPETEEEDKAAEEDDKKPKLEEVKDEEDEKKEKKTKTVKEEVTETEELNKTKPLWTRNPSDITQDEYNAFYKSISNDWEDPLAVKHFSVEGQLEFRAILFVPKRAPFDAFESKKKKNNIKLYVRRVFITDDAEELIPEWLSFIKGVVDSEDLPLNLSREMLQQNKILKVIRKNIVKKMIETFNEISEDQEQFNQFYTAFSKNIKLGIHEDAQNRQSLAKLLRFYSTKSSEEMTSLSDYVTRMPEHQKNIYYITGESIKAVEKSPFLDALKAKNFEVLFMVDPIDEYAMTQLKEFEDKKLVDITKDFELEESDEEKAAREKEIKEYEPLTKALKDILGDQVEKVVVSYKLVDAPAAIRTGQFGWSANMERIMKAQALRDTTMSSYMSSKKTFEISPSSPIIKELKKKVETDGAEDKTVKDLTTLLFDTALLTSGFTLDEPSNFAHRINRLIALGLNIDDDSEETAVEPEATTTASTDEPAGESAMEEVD

Chain of Sphingosine 1-phosphate receptor 1 (P21453 whole entry): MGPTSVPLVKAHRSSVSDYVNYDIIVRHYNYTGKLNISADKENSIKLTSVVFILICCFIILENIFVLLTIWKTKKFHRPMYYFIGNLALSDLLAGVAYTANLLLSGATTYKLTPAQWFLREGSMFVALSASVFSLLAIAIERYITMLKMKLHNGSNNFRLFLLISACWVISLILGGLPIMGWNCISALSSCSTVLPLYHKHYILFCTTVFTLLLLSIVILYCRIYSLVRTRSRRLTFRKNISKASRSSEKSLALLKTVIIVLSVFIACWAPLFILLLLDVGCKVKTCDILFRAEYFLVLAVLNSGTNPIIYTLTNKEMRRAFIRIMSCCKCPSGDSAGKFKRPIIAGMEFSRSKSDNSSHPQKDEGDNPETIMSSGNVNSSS

Q: For COc1cccc(/C=N/Nc2ccc([N+](=O)[O-])cn2)c1O, which EC50 (BJ) is on record?
A: 3.31 µM (inconclusive)

Q: What about the EC50 [1] of the same compound?
A: 3.96 µM (active)

Q: What does the source list for CCc1ccc(S(=O)(=O)/N=C2\C=C(Nc3ccc(C(=O)O)cc3)C(=O)c3ccccc32)cc1?
A: AC50 [2]: > 380 µM (inconclusive); IC50 (Hexokinase HKDC1): 6.5 µM (active); EC50 (Streptokinase A): > 150 µM (not active)

Q: With Oc1c(C(c2ccccc2Cl)N2CCCC2)ccc2cccnc12 (centres undefined) as the compound, how does the IC50 [3] read?
A: 12 µM (active)

Q: And the IC50 [4]?
A: 5.93 µM (active)

Q: And the CC50 [5]?
A: 9.54 µM (active)

Q: And the EC50 [6]?
A: > 160 µM (inactive)
